Laboratory results: patent US4302541A, “Process of producing optically active cephalosporin analogs by enzyme selective deacylation” (Kyowa Hakko Kogyo Co., Ltd., priority 1979, dated 1981)
In brackets after ≈: the same amount, converted by molar mass. Like-named read-outs stand apart in the source and are kept apart here.

Legend:
Experiment in all cases: Heart Infusion Agar Dilution Method (MIC)
Type in all cases: cell-based
[1] = system: Escherichia coli NIHJC-2; details: NIHJC2, pH 7.2
[2] = system: Escherichia coli Juhl; details: pH 7.2
[3] = system: Staphylococcus aureus 209-P; details: pH 7.2
[4] = system: Klebsiella pneumoniae Y-60; details: Y60, pH 7.2
[5] = system: Proteus mirabilis 1287
[6] = system: Staphylococcus epidermidis; details: pH 7.2
[7] = system: Serratia marcescens T-55; details: T55, pH 7.2
[8] = system: Klebsiella pneumoniae 8045; details: pH 7.2
[9] = system: Serratia marcescens T-26; details: T26, pH 7.2
[10] = Staphylococcus aureus 209-P, Heart Infusion Agar Dilution Method, read-out: MIC

MIC ([5]; Proteus mirabilis 1287, Heart Infusion Agar Dilution Method, pH 7.2, read-out: MIC) [µg/mL]	MIC [8] [µg/mL]	MIC [9] [µg/mL]	Structure (SMILES)	MIC [1] [µg/mL]	MIC [2] [µg/mL]	MIC [3, 10] [µg/mL]	MIC [4] [µg/mL]	MIC ([5]; Proteus mirabilis, 1287, pH 7.2) [µg/mL]	MIC [6] [µg/mL]	MIC ([3]; Staphylococcus aureus, 209P) [µg/mL]	MIC [7] [µg/mL]
–	–	–	Cc1nnc(SCC2=C(C(=O)O)N3C(=O)[C@@H](NC(=O)Cn4cnnn4)[C@H]3SC2)s1 [Cefazolin]	1.56 (≈ 3.43 µM)	1.56 (≈ 3.43 µM)	≤ 0.05	–	–	–	–	–
–	–	–	CC1=C(C(=O)O)N2C(=O)[C@@H](NC(=O)[C@H](N)c3ccccc3)[C@H]2SC1 [Cephalexin]	12.5 (≈ 36 µM)	12.5 (≈ 36 µM)	–	50 (≈ 144 µM)	25 (≈ 72 µM)	3.12 (≈ 8.98 µM)	0.2 (≈ 0.576 µM)	50 (≈ 144 µM)
3.12 (≈ 8.92 µM)	0.2 (≈ 0.572 µM)	> 100	N[C@@H](C(=O)N[C@@H]1C(=O)N2C(C(=O)O)=C(Cl)CC[C@H]12)c1ccccc1 [Reference Example 2, (6R, 7S) 7-(R)-2-phenylglycinamido3-chloro-1-azabicyclo[4,2,0]oct-2-en-8-on-2-carboxylic acid]	–	–	0.1 (≈ 0.286 µM)	–	–	–	–	–
